≈ marks a conversion by molar mass, not a printed value. Like-named read-outs stand apart in the source and are kept apart here.
What was measured:
[1] = tested on: VRSA 48; assay: Antibacterial activity against vancomycin-resistant bacteria (MIC); assay type: cell-based, Vancomycin-resistant S. aureus; conditions: Staphylococcus aureus
Experimental: (§1) Test strains were maintained in MHB (Mueller Hinton broth), and antibacterial activity was measured using a broth microdilution method. After being incubated overnight, each of the test stains was diluted to a population of 2×100,000 cells/ml, and aliquoted in an amount of 100 μl per well into 96-well plates. Complestatin, neuroprotectin A and positive controls such as vancomycin, oxacillin and nofloxacin were treated at concentration with gradual dilution by 2-fold from maximum concentration of 128 μg/ml. Each compound was diluted in dimethylsulxoside (DMSO), and the concentration of DMSO was adjusted to approximately 1/100 before application. After incubation for 20 hrs, absorbance was read at 650 nm to examine the growth of bacterial cells.
(§2) The compounds of the present invention, complestatin and neuroprotectin A were examined for antibacterial activity against vacomycin-resistant bacteria in the same manner as in Example 4, and the results are given in Table 4, below.

[2] = tested on: QRSA CCARM 3519; assay: Broth microdilution antibacterial activity (MIC); assay type: cell-based, Quinolone-resistant Staphylococcus aureus; conditions: Staphylococcus aureus, CCARM3519
Experimental: as §1

[3] = tested on: QRSA CCARM 3505; assay: Broth microdilution antibacterial activity (MIC); assay type: cell-based, Quinolone-resistant Staphylococcus aureus; conditions: Staphylococcus aureus, CCARM3505
Experimental: as §1

[4] = tested on: MRSA CCARM 3167; assay: Broth microdilution antibacterial activity (MIC); assay type: cell-based, Methicillin-resistant Staphylococcus aureus; conditions: Staphylococcus aureus
Experimental: as §1

[5] = tested on: MRSA CCARM 3506; assay: Broth microdilution antibacterial activity (MIC); assay type: cell-based, Methicillin-resistant Staphylococcus aureus; conditions: Staphylococcus aureus
Experimental: as §1

[6] = tested on: Staphylococcus aureus, Bacillus subtilis, Bacillus cereus, Enterococcus faecium and Staphylococcus epidermis, MRSA, QRSA; assay: Antibacterial activity, summary over the panel of Table 3; assay type: cell-based
Experimental: as §1

[7] = tested on: Vancomycin-resistant S. aureus (VRSA) and Vancomycin-resistant Enterococcus (VRE); assay: Antibacterial activity, vancomycin-resistant bacteria of Table 4; assay type: cell-based
Experimental: as §1, §2

[8] = tested on: VRE 11; assay: Antibacterial activity against vancomycin-resistant bacteria (MIC); assay type: cell-based; conditions: Enterococcus
Experimental: as §1, §2

[9] = tested on: VRE 3; assay: as above; assay type: cell-based; conditions: Enterococcus
Experimental: as §1, §2

[10] = tested on: VRE 7; assay: as above; assay type: cell-based; conditions: Enterococcus
Experimental: as §1, §2

[11] = tested on: Entercoccus faecium KCTC 3511; assay: Broth microdilution antibacterial activity (MIC); assay type: cell-based; conditions: Enterococcus faecium, KCTC3511
Experimental: as §1

[12] = tested on: Staphylococcus epidermidis KCTC 3958; assay: Broth microdilution antibacterial activity (MIC); assay type: cell-based; conditions: KCTC3958
Experimental: as §1

[13] = tested on: Staphylococcus aureus 209; assay: Broth microdilution antibacterial activity (MIC); assay type: cell-based
Experimental: as §1

[14] = tested on: Bacillus cereus KCTC 1661; assay: Broth microdilution antibacterial activity (MIC); assay type: cell-based; conditions: KCTC1661
Experimental: as §1

[15] = tested on: Entercoccus faecium KCTC 5191; assay: Broth microdilution antibacterial activity (MIC); assay type: cell-based; conditions: Enterococcus faecium, KCTC5191
Experimental: as §1

[16] = tested on: Bacillus subtilis KCTC 1021; assay: Broth microdilution antibacterial activity (MIC); assay type: cell-based; conditions: KCTC1021
Experimental: as §1

[17] = tested on: Staphylococcus aureus RN 4220; assay: Broth microdilution antibacterial activity (MIC); assay type: cell-based
Experimental: as §1, §2

[18] = against VRSA and VRE (text summary of Table 4), read-out: MIC
[19] = Entercoccus faecium KCTC 3511, read-out: MIC
[20] = Staphylococcus epidermidis KCTC 3958, read-out: MIC
[21] = Staphylococcus aureus 209, 20 hrs incubation, MHB, read-out: MIC
[22] = Bacillus cereus KCTC 1661, read-out: MIC
[23] = Entercoccus faecium KCTC 5191, read-out: MIC
[24] = Bacillus subtilis KCTC 1021, read-out: MIC
[25] = RN4220, Staphylococcus aureus RN 4220, Table 3, read-out: MIC

Structure (SMILES)	MIC ([1]; VRSA 48, read-out: MIC) [mg/L]	MIC ([2]; QRSA CCARM 3519, read-out: MIC) [mg/L]	MIC ([3]; QRSA CCARM 3505, read-out: MIC) [mg/L]	MIC ([4]; MRSA CCARM 3167, read-out: MIC) [mg/L]	MIC ([5]; MRSA CCARM 3506, read-out: MIC) [mg/L]	MIC [6] [mg/L]	MIC [7, 18] [mg/L]	MIC ([8]; VRE 11, read-out: MIC) [mg/L]	MIC ([9]; VRE 3, read-out: MIC) [mg/L]	MIC ([10]; VRE 7, read-out: MIC) [mg/L]	MIC [11, 19] [mg/L]	MIC [12, 20] [mg/L]	MIC [13, 21] [mg/L]	MIC [14, 22] [mg/L]	MIC [15, 23] [mg/L]	MIC [16, 24] [mg/L]	MIC [17, 25] [mg/L]	MIC ([17]; S. aureus RN 4220, Table 4) [mg/L]	further results
CN1C(=O)C(c2cc(Cl)c(O)c(Cl)c2)NC(=O)C2NC(=O)C(c3cc(Cl)c(O)c(Cl)c3)NC(=O)C(NC(=O)C(=O)c3cc(Cl)c(O)c(Cl)c3)Cc3c[nH]c4cc(ccc34)-c3cc2cc(c3O)Oc2ccc(cc2)CC1C(=O)NC(C(=O)O)c1ccc(O)cc1 (centres unmarked) [Complestatin]	1 (≈ 0.753 µM)	2 (≈ 1.51 µM)	1 (≈ 0.753 µM)	1 (≈ 0.753 µM)	1 (≈ 0.753 µM)	0.5 to 2 (≈ 0.376 to 1.51 µM)	1 (≈ 0.753 µM)	1 (≈ 0.753 µM)	1 (≈ 0.753 µM)	1 (≈ 0.753 µM)	2 (≈ 1.51 µM)	2 (≈ 1.51 µM)	2 (≈ 1.51 µM)	0.5 (≈ 0.376 µM)	2 (≈ 1.51 µM)	0.5 (≈ 0.376 µM)	1 (≈ 0.753 µM)	1 (≈ 0.753 µM)	
CN1C(=O)C(c2cc(Cl)c(O)c(Cl)c2)NC(=O)C2NC(=O)C(c3cc(Cl)c(O)c(Cl)c3)NC(=O)C(NC(=O)C(=O)c3cc(Cl)c(O)c(Cl)c3)CC3C(=O)Nc4cc(ccc43)-c3cc2cc(c3O)Oc2ccc(cc2)CC1C(=O)NC(C(=O)O)c1ccc(O)cc1 (centres unmarked) [Neuroprotectin A]	1 (≈ 0.744 µM)	2 (≈ 1.49 µM)	1 (≈ 0.744 µM)	1 (≈ 0.744 µM)	1 (≈ 0.744 µM)	0.5 to 2 (≈ 0.372 to 1.49 µM)	1 (≈ 0.744 µM)	1 (≈ 0.744 µM)	1 (≈ 0.744 µM)	1 (≈ 0.744 µM)	2 (≈ 1.49 µM)	2 (≈ 1.49 µM)	2 (≈ 1.49 µM)	0.5 (≈ 0.372 µM)	2 (≈ 1.49 µM)	0.5 (≈ 0.372 µM)	1 (≈ 0.744 µM)	1 (≈ 0.744 µM)	
CCn1cc(C(=O)O)c(=O)c2cc(F)c(N3CCNCC3)cc21 [Norfloxacin]	200 (≈ 626 µM)	125 (≈ 391 µM)	250 (≈ 783 µM)	8 (≈ 25.1 µM)	1 (≈ 3.13 µM)			200 (≈ 626 µM)	50 (≈ 157 µM)	50 (≈ 157 µM)	4 (≈ 12.5 µM)	0.5 (≈ 1.57 µM)	0.25 (≈ 0.783 µM)	1 (≈ 3.13 µM)	4 (≈ 12.5 µM)	0.25 (≈ 0.783 µM)	1 (≈ 3.13 µM)	1 (≈ 3.13 µM)	
Cc1onc(-c2ccccc2)c1C(=O)N[C@@H]1C(=O)N2[C@@H]1SC(C)(C)[C@@H]2C(=O)O [Oxacillin]	> 200	0.5 (≈ 1.25 µM)	0.5 (≈ 1.25 µM)	500 (≈ 1250 µM)	500 (≈ 1250 µM)		> 200	> 200	> 200	> 200	8 (≈ 19.9 µM)	0.25 (≈ 0.623 µM)	0.25 (≈ 0.623 µM)	32 (≈ 79.7 µM)	4 (≈ 9.96 µM)	0.25 (≈ 0.623 µM)	0.25 (≈ 0.623 µM)	0.25 (≈ 0.623 µM)	
CN[C@H](CC(C)C)C(=O)N[C@H]1C(=O)N[C@@H](CC(N)=O)C(=O)N[C@H]2C(=O)N[C@H]3C(=O)N[C@H](C(=O)N[C@H](C(=O)O)c4cc(O)cc(O)c4-c4cc3ccc4O)[C@H](O)c3ccc(c(Cl)c3)Oc3cc2cc(c3O[C@@H]2O[C@H](CO)[C@@H](O)[C@H](O)[C@H]2O[C@H]2C[C@](C)(N)[C@H](O)[C@H](C)O2)Oc2ccc(cc2Cl)[C@H]1O [Vancomycin]																		1 (≈ 0.69 µM)	MIC ([1]; VRSA): > 200 mg/L; MIC [2]: 1 mg/L (≈ 0.69 µM); MIC [3]: 1 mg/L (≈ 0.69 µM); MIC [4]: 2 mg/L (≈ 1.38 µM); MIC [5]: 0.5 mg/L (≈ 0.345 µM); MIC ([7]; VRE): > 200 mg/L; MIC ([8]; VRE): > 200 mg/L; MIC ([9]; VRE): > 200 mg/L; MIC ([10]; VRE): > 200 mg/L; MIC [11]: 2 mg/L (≈ 1.38 µM); MIC ([12]; Staphylococcus epidermidis): 2 mg/L (≈ 1.38 µM); MIC ([13]; Staphylococcus aureus, 209, 20 h): 0.5 mg/L (≈ 0.345 µM); MIC ([14]; Bacillus cereus): 1 mg/L (≈ 0.69 µM); MIC [15]: 1 mg/L (≈ 0.69 µM); MIC ([16]; Bacillus subtilis): 0.125 mg/L (≈ 0.0863 µM); MIC ([17]; Staphylococcus aureus, RN4220): 1 mg/L (≈ 0.69 µM)
